Test results as given in US4935424A, “4 or 5-(substituted piperazinylalkyl)-2-aminothiazoles as antipsychotic agents” (priority 1988, dated 1990).
Read-outs that look alike come from different tables or passages of the source.

Columns and labels:
[1] = tested on: locomotor activity in mice; experiment: Inhibition of locomotor activity in mice; type: in vivo; settings: Mus musculus, IP
Experimental: (§1) Thus, the compounds of Formula I were tested for their ability to inhibit locomotor activity in mice according to the assay described in Pharmacol. Biochem. Behav. 1978 (8) 97; for their ability to inhibit haloperidol binding in a receptor binding assay described in Mol. Pharmacol. 1976 (12), 800; for their ability to inhibit brain dopamine synthesis in rats according to the protocol described in Naumyn-Schmiedeberg's Arch. Pharmacol., 1976 (296) 5; and for their ability to inhibit dopamine neuron firing in rats according to the protocol described in Nature New Biology, 1973 (245) 123.

[2] = tested on: dopamine neuron firing; experiment: Inhibition of dopamine neuron firing in rats; type: in vivo; settings: IP
Experimental: as §1

[3] = molecular target: T1, haloperidol binding (Bos taurus, UniProt P20288); experiment: Inhibition of haloperidol binding in a receptor binding assay; settings: for inhibition at 10 µM: at 10,000 nM
T1 construct: from tissue
Experimental: as §1

[4] = tested on: brain dopamine synthesis; experiment: Inhibition of brain dopamine synthesis in rats; type: in vivo; settings: Rattus norvegicus, IP
Experimental: as §1

[5] = read-out: Inhibition of Haloperidol Binding (IC50 nM)

T1 sequence (P20288 whole entry): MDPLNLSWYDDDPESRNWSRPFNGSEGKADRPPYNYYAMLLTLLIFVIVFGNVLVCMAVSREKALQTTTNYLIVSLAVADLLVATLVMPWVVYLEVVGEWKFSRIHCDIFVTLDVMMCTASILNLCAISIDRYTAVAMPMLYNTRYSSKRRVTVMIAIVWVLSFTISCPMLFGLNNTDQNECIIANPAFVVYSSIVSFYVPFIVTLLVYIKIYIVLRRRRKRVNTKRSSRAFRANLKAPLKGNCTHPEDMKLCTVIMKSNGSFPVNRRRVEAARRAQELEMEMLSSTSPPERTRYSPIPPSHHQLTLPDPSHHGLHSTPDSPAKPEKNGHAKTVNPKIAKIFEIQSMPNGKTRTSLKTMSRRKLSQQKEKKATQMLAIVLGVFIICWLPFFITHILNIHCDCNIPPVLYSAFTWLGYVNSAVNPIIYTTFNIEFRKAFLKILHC

IC50 [3, 5]	inhibition at 10 µM [3]	Structure (SMILES)	ED50 [1]	Inhibition of Dopamine Neuron Firing in Rats ([2]; 2.5 mg/kg)	inhibition in vivo at 1 mg/kg [4]	Inhibition of Dopamine Neuron Firing in Rats ([2]; 10 mg/kg)	inhibition in vivo at 10 mg/kg [4]	IC50 [3]
–	40%	Nc1nc(CCCN2CCN(c3ccccc3)CC2)cs1 [Example 1c, 4-[3-(4-Phenyl-1-piperazinyl)propyl]-2-thiazolamine]	2.4 mg/kg	–	–	–	–	–
118 nM	–	Cc1nc(N)sc1CCN1CCN(c2ncccn2)CC1 [Example 1f, 4-Methyl-5-[2-[4-(2-pyrimidinyl)-1-piperazinyl]ethyl]-2-thiazolamine]	1.4 mg/kg	–	–	–	–	–
1600 nM	–	Nc1nc(CCCN2CCN(c3ncccn3)CC2)cs1 [Example 1g, 4-[3-[4-(2-Pyrimidinyl)-1-piperazinyl]-propyl]-2-thiazolamine]	> 30 mg/kg	–	–	–	–	–
75 nM	–	Cc1nc(N)sc1CCN1CCN(c2ccccn2)CC1 [Example 1h, 4-Methyl-5-[2-[4-(2-pyridinyl)-1-piperazinyl]ethyl]-2-thiazolamine]	1.4 mg/kg	100%	87%	–	–	–
–	100%	Nc1nc(CCCN2CCN(c3ccccn3)CC2)cs1 [Example 1i, 4-[3-[4-(2-Pyridinyl)-1-piperazinyl]-propyl]-2-thiazolamine]	7.6 mg/kg	–	–	–	43%	–
249 nM	–	Cc1nc(N)sc1CCCN1CCN(c2ccccn2)CC1 [Example 1j, 4-Methyl-5-[3-[4-(2-pyridinyl)-1-piperazinyl]propyl]-2-thiazolamine]	4.6 mg/kg	98%	–	–	100%	–
488 nM	–	Nc1nc(CCCCN2CCN(c3ccccn3)CC2)cs1 [Example 1k, 4-[4-[4-(2-Pyridinyl)-1-piperazinyl]-butyl]-2-thiazolamine]	5.5 mg/kg	–	–	–	63%	–

Further lines, the molecule ahead of its results:

Structure (SMILES)	IC50 [3, 5]	inhibition at 10 µM [3]	ED50 [1]	Inhibition of Dopamine Neuron Firing in Rats ([2]; 2.5 mg/kg)	inhibition in vivo at 1 mg/kg [4]	Inhibition of Dopamine Neuron Firing in Rats ([2]; 10 mg/kg)	inhibition in vivo at 10 mg/kg [4]	IC50 [3]
Cc1nc(N)sc1CCCN1CCN(c2ncccn2)CC1 [Example 1, 4-Methyl-5-[3-[4-(2-pyrimidinyl)-1-piperazinyl]-propyl]-2-thiazolamine]	370 nM	–	6.3 mg/kg	90%	82%	–	–	–
Nc1nc(CCCCN2CCN(c3ncccn3)CC2)cs1 [Example 1a, 4-[4-[4-(2-Pyrimidinyl)-1-piperazinyl]butyl]-2-thiazolamine]	1060 nM	–	> 30 mg/kg	–	–	–	–	–
Cc1nc(N)sc1CCN1CCN(c2ccccc2)CC1 [Example 1b, 4-Methyl-5-[2-(4-phenyl-1-piperazinyl)ethyl]-2-thiazolamine]	–	100%	1.5 mg/kg	–	–	80%	–	–
Cc1nc(N)sc1CCN1CC=C(c2ccccc2)CC1 [Example 1d, 5-[2-(3,6-dihydro-4-phenyl-1(2H)-pyridinyl)ethyl]-4-methyl-2-thiazolamine]	400 nM	–	0.88 mg/kg	70%	–	–	84%	–
Cl.Cl.Nc1nc(CCCN2CC=C(c3ccccc3)CC2)cs1 [Example 1e, 4-[3-(3,6-Dihydro-4-phenyl-1(2H)-pyridinyl)propyl]-2-thiazolamine, dihydrochloride]	–	–	1.7 mg/kg	78%	–	–	44%	346 nM
Nc1ncc(CCN2CCN(c3ccccn3)CC2)s1 [Example 2, 5-[2-[4-(2-pyridinyl)-1-piperazinyl]ethyl]-2-thiazolamine]	–	–	5.9 mg/kg	–	–	–	92%	–
Nc1ncc(CCN2CCN(c3ccccc3)CC2)s1 [Example 2a, 5-[2-(4-Phenyl-1-piperazinyl)ethyl]-2-thiazolamine]	–	–	2.6 mg/kg	–	–	–	–	–
Nc1ncc(CCN2CC=C(c3ccccc3)CC2)s1 [Example 2b, 5-[2-(3,6-Dihydro-4-phenyl-1(2H)-pyridinyl)ethyl]-2-thiazolamine]	–	–	0.47 mg/kg	–	–	–	25%	–
